PubChem BioAssay (NCI)
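In this assay, cells in 96-well plates receive the compound at five concentrations for 48 hours. Endpoints are linearly interpolated between the surrounding concentrations. GI50: concentration for 50% inhibition of growth. TGI marks complete inhibition of growth.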

Columns and labels:
Assay in all cases: inhibition of tumour cell growth, NCI panel, 48 h
[1] = test system: HCT-116 colon
[2] = test system: HL-60(TB) leukemia
[3] = test system: HOP-92 NSCLC
[4] = test system: LOX IMVI melanoma
[5] = test system: MDA-MB-231 breast
[6] = test system: MDA-N
[7] = test system: MOLT-4 leukemia
[8] = test system: NCI-H460 lung
[9] = test system: SN12C renal
[10] = test system: T-47D breast

Row | Compound | TGI [1] [µM] | TGI [2] [µM] | TGI [3] [µM] | TGI [4] [µM] | TGI [5] [µM] | TGI [6] [µM] | TGI [7] [µM] | TGI [8] [µM] | TGI [9] [µM] | TGI [10] [µM] | GI50 [7] [µM]
1 | CC(C)(C)c1ccc2c(c1)C#Cc1cc3c(cc1OCCCO2)C#Cc1cc(C(C)(C)C)ccc1OCCCO3 | > 100 | > 100 | > 100 | > 100 | > 100 | > 100 | > 100 | > 100 | > 100 | > 100 | –
2 | O=C(CCSC1=NCCCN1)c1ccc(F)cc1 | 39.3 | 30.4 | 40.6 | 45.1 | 49.1 | 32.4 | 7.27 | 47.7 | 43.6 | > 70.6 | –
3 | CCN(C(=O)N[C@@H](C)C(=O)N[C@@H](Cc1ccccc1)C(=O)OC)c1ccccc1 | > 100 | > 100 | 68 | > 100 | > 100 | > 100 | > 100 | 38.4 | 73.2 | > 100 | –
4 | Cc1cc(N(C)C)c2ccccc2[n+]1CCCCCCCCCC[n+]1c(C)cc(N(C)C)c2ccccc21 | 12.4 | 2.18 | 5.44 | 3.24 | 6.15 | 2.73 | 13.8 | 13 | 4.72 | 15.2 | –
5 | O=C(O)c1cccc(S(=O)(=O)NN2C(=O)CSC2c2ccc(Cl)cc2Cl)c1 (stereo unspecified) | 83.1 | 34 | > 100 | > 100 | > 100 | > 100 | > 100 | > 100 | > 100 | > 100 | –
6 | CCOC(=O)CC/C(=N/Nc1ccc(Cl)cc1[N+](=O)[O-])C(=O)OCC | > 100 | > 100 | > 100 | > 100 | > 100 | > 100 | > 100 | > 100 | > 100 | > 100 | –
7 | CCOC(=O)c1c2cccccc-2nc1Nc1cccc2c(C)ccnc12 | > 10 | > 10 | > 10 | > 10 | > 10 | > 10 | > 10 | > 10 | > 10 | > 10 | –
8 | O=C(c1ccccc1)c1ccc2c(c1)NC(=O)c1ccccc1SSc1ccccc1C(=O)N2 | > 100 | > 100 | > 100 | > 100 | > 100 | > 100 | > 100 | > 100 | > 100 | > 100 | –
9 | O=C(O)C(O)C(O)C(O)C(O)CO (stereo unspecified) | > 100 | > 100 | > 100 | > 100 | > 100 | > 100 | > 100 | > 100 | > 100 | > 100 | –
10 | C[C@@H]1CCC2[C@@H](C)[C@@H](O[C@H]3O[C@@H]4O[C@@]5(C)CCC6[C@H](C)CCC([C@H]3C)[C@]64OO5)O[C@@H]3O[C@@]4(C)CCC1[C@@]23OO4 (stereo partly specified) | > 25 | > 5.22 | > 25 | > 25 | > 25 | > 25 | > 25 | > 25 | > 25 | > 25 | –
11 | CCOC(=O)C(NC(=O)CC)(N1CCN(c2cc3c(cc2F)c(=O)c(C(=O)O)cn3C2CC2)CC1)C(F)(F)F (stereo unspecified) | > 100 | > 100 | > 100 | > 100 | > 100 | > 100 | > 100 | > 100 | > 100 | > 100 | –
12 | COc1ccc(C(=O)NCCN(C)C)c2nc3ccccc3cc12 | 5.25 | 2.15 | 8.05 | 1.74 | 10.9 | 4.38 | 22.6 | 2.55 | 3.28 | 12.6 | –
13 | O=C1CSC2(CC(/C=C/c3cccs3)=NN2c2cccc(S(=O)(=O)O)c2)N1c1nc2ccccc2s1 (stereo unspecified) | > 100 | > 100 | > 100 | > 100 | > 100 | > 100 | > 100 | > 100 | > 100 | 80.2 | –
14 | Nc1ncnc2c1ccn2C/C=C/CO | > 100 | > 100 | > 100 | > 100 | > 100 | > 100 | > 100 | > 100 | > 100 | > 100 | –
15 | CC1(C)C=CC(=O)C(O)C(C)(C)C1=O (stereo unspecified) | > 100 | > 100 | > 100 | > 100 | > 100 | > 100 | 69.7 | > 100 | > 100 | > 100 | –
16 | Cc1nc2ccccc2c(-n2cccn2)c1CCn1cccn1 | > 100 | > 100 | > 100 | > 100 | > 100 | > 100 | > 100 | > 100 | > 100 | > 100 | –
17 | COc1ccc(/C=N/NC(=O)c2ccc(O)c(CN(C)C)c2)cc1 | > 100 | > 100 | > 100 | > 100 | > 100 | > 100 | > 100 | > 100 | > 100 | > 100 | –

Row | Compound | TGI [1] [µM] | TGI [2] [µM] | TGI [3] [µM] | TGI [4] [µM] | TGI [5] [µM] | TGI [6] [µM] | TGI [7] [µM] | TGI [8] [µM] | TGI [9] [µM] | TGI [10] [µM] | GI50 [7] [µM]
18 | CC(C)N1CCN(c2ccc(OCC3COC(Cn4cncn4)(c4ccc(Cl)cc4Cl)O3)cc2)CC1 (stereo unspecified) | 23.4 | 33.3 | 30.8 | 30.2 | 28.5 | 16.6 | 28.8 | 31.3 | 30.7 | 47.8 | –
19 | C=CCn1c(=O)ccn(/C(=C/C(=O)OCC)C(=O)OCC)c1=O | > 41.5 | 3.98 | 9.15 | 18.1 | 26 | 31.3 | 10.3 | 34 | 25.2 | 19 | –
20 | Cc1ccc2c(c1)c1ccc3c(c1n2C)C(=O)C=CC3=O | 2.92 | 1.69 | 3.92 | > 10 | 6.01 | 3.65 | 2.19 | > 10 | > 7.51 | 5.08 | –
21 | N#CC(c1ccccc1)N(CCOCCOCCN(C(=O)c1ccccc1)C(C#N)c1ccccc1)C(=O)c1ccccc1 (stereo unspecified) | > 100 | > 100 | > 100 | > 100 | > 100 | > 100 | > 100 | > 100 | > 100 | 67.4 | –
22 | CC(C)(CO)CNc1nc(N)nc(Cl)c1/C=N/O | > 100 | > 100 | 84.7 | > 100 | > 100 | > 100 | > 100 | > 100 | > 100 | 38.9 | –
23 | Cc1ccc(/C=C2/N=C(N/N=C\C(O)C(O)C(O)C(O)CO)NC2=O)cc1 (stereo unspecified) | > 100 | > 100 | > 100 | > 100 | > 100 | > 100 | > 100 | > 100 | > 100 | > 100 | 70.1
24 | N#Cc1sc2c(c1OC(=O)c1ccc(C(F)(F)F)cc1)c(=O)n(-c1ccccc1)c(=S)n2-c1ccccc1 | 74.6 | 46.1 | 68.4 | 59.9 | > 100 | > 100 | 52.7 | > 100 | 88.1 | > 100 | –
25 | O=c1c2c(no[n+]2[O-])c2ccccc2n1-c1ccccc1 | 6.73 | 15.3 | 17.6 | 7.28 | 24.8 | 9.56 | 26.6 | 21.4 | 17.2 | 23.6 | –
26 | Cn1c2ccccc2c2c(=S)c3ccccc3ccc21 | > 100 | > 100 | > 100 | > 100 | > 100 | > 100 | > 100 | > 100 | > 100 | > 100 | –
27 | COc1cc(C=O)ccc1O | > 100 | > 100 | > 100 | > 100 | > 100 | > 100 | > 100 | > 100 | > 100 | > 100 | –
28 | CCOC(=O)/C(C(C)=O)=C(\OC(C)=O)c1ccncc1C(=O)O | > 100 | > 100 | > 100 | > 100 | > 100 | > 100 | > 100 | > 100 | > 100 | > 100 | –
29 | CC(C)(C)OC(=O)NC(CSSCC(NC(=O)OC(C)(C)C)C(=O)O)C(=O)O (stereo unspecified) | > 100 | > 100 | > 100 | > 100 | > 100 | > 100 | > 100 | > 100 | > 100 | > 100 | –
30 | O=C(CNc1ccc(Cl)cc1Cl)Nn1c(-c2ccccc2)nc2ccccc2c1=O | 31.3 | > 100 | 22.7 | 24.1 | 36.7 | 34.5 | 43.3 | 30.5 | 30.5 | 38.5 | –
31 | O=C(CC(=O)Nc1ccccc1)NNC(Sc1ccccc1)c1cc(N=Nc2ccc(Br)cc2)ccc1O (stereo unspecified) | 2.81 | 1.9 | > 10 | > 10 | > 10 | > 10 | > 10 | > 10 | > 10 | > 10 | –
32 | c1ccc(C2=NOC(c3ccccc3)N2C23CC4CC(CC(C4)C2)C3)cc1 (stereo unspecified) | > 10 | > 10 | > 10 | > 10 | > 10 | > 10 | > 10 | > 10 | > 10 | > 10 | –
33 | C=C(C)CNCCN | > 100 | > 100 | > 100 | > 100 | > 100 | > 100 | > 100 | > 100 | > 100 | > 100 | –
